The structures appear in SMILES notation.

What is called IC50 is the point on the concentration scale where inhibition reaches its midpoint. High values mean weaker potency in that assay, low ones greater potency in that assay.

Sequence of human Cat S (P25774 115-331): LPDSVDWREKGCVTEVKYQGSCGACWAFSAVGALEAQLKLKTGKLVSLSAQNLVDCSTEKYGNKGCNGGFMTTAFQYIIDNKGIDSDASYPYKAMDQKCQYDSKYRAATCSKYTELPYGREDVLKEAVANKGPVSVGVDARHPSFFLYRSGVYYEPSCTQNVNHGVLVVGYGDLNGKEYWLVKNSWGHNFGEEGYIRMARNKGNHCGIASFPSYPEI

The experiment concerns the target human Cat S (Homo sapiens, UniProt P25774). As to the kind of experiment: Cathepsin enzyme inhibition assay (fluorogenic peptide substrate cleavage). In kind it is biochemical. The conditions noted are these: human Cat S 1 nM; substrate Z-Val-Val-Arg-AMC 20 μM; pH 6.5; fluorescence over 20 minutes. As to the method:
Cathepsin Enzyme Inhibition Assay
Enzyme activity is measured by observing the increase in fluorescence intensity caused by cleavage of a peptide substrate containing a fluorophore whose emission is quenched in the intact peptide.
Assay buffer: 100 mM potassium phosphate pH 6.5, EDTA-Na 5 mM, Triton X-100 0.001%, DTT 5 mM. Enzymes (all at 1 nM): human and mouse Cathepsin S, Cat K, Cat B, Cat L. Substrate (20 μM): Z-Val-Val-Arg-AMC, except for Cat K which uses Z-Leu-Arg-AMC (both from Bachem).
AMC=7-Amino-4-Methyl-Coumarin.
DTT=dithiothreitol. Final volume: 100 μL.
Excitation 360 nm, Emission 465 nm.
Enzyme is added to the substance dilutions in 96-well microtitre plates and the reaction is started with substrate. Fluorescence emission is measured over 20 minutes, during which time a linear increase is observed in the absence of inhibitor. IC50 are calculated by standard methods. Inhibition of human Cat S, mouse Cat S, human Cat K, mouse Cat K, human Cat B, mouse Cat B, human Cat L and mouse Cat L have been measured separately. The results obtained for human Cat S are expressed in the following table.
`Cc1cc(-c2ccc(S(=O)(=O)[C@@H]3C[C@@H](C(=O)NC4(C#N)CC4)[C@H](C(=O)N4CCC(F)(F)C4)C3)c(Cl)c2)ccn1` [Example 198, (1R,2R,4R)-4-[2-Chloro-4-(2-methyl-pyridin-4-yl)-benzenesulfonyl]-2-(3,3-difluoro-pyrrolidine-1-carbonyl)-cyclopentanecarboxylic acid (1-cyano-cyclopropyl)-amide] displayed a half-maximal inhibitory concentration (IC50) of 0.135 nM.

In the case of `Cc1cc(-c2ccc(S(=O)(=O)[C@@H]3C[C@@H](C(=O)NC4(C#N)CC4)[C@H](C(=O)N4CC(F)(F)C4)C3)c(C(F)(F)F)c2)ccn1` [Example 121, (1R,2R,4R)-2-(3,3-Difluoro-azetidine-1-carbonyl)-4-[4-(2-methyl-pyridin-4-yl)-2-trifluoromethyl-benzenesulfonyl]-cyclopentanecarboxylic acid (1-cyano-cyclopropyl)-amide], the IC50 was determined as 0.2 nM.

`N#CCNC(=O)[C@@H]1C[C@@H](S(=O)(=O)c2ccccc2C(F)(F)F)C[C@H]1C(=O)N1CCOCC1` [Example 37, (1R,2R,4R)-2-(Morpholine-4-carbonyl)-4-(2-trifluoromethyl-benzenesulfonyl)-cyclopentanecarboxylic acid cyanomethyl-amide] gave an IC50 of 0.9 nM.

The compound `CC(C)(C)N1CCN(c2ccc(S(=O)(=O)[C@@H]3C[C@@H](C(=O)NC4(C#N)CC4)[C@H](C(=O)N4CC(F)(F)C4)C3)c(Cl)c2)CC1` [Example 160, (1R,2R,4R)-4-[4-(4-tert-Butyl-piperazin-1-yl)-2-chloro-benzenesulfonyl]-2-(3,3-difluoro-azetidine-1-carbonyl)-cyclopentanecarboxylic acid (1-cyano-cyclopropyl)-amide] returned an IC50 of 0.165 nM.

As for `N#CC1(NC(=O)[C@@H]2C[C@@H](S(=O)(=O)c3ccc(F)cc3Cl)C[C@H]2COc2cccnc2)CC1` [Example 165, (1R,2R,4S)-4-(2-Chloro-4-fluoro-benzenesulfonyl)-2-(pyridin-3-yloxymethyl)-cyclopentanecarboxylic acid (1-cyano-cyclopropyl)-amide], it took 6.83 nM to reach half-maximal inhibition (IC50).

`N#CC1(NC(=O)[C@@H]2C[C@@H](S(=O)(=O)c3ccc(F)cc3Cl)C[C@H]2COc2ccccc2)CC1` [Example 164, (1R,2R,4S)-4-(2-Chloro-4-fluoro-benzenesulfonyl)-2-phenoxymethyl-cyclopentanecarboxylic acid (1-cyano-cyclopropyl)-amide] showed an IC50 of 3 nM.

For `CO[C@H]1C[C@@H](S(=O)(=O)c2ccc(-n3cc(CCO)nn3)cc2C(F)(F)F)C[C@@H]1C(=O)NC1(C#N)CC1` (racemic) [Example 253, (1S,2S,4S) and (1R,2R,4R)-4-{4-[4-(2-Hydroxy-ethyl)-[1,2,3]triazol-1-yl]-2-trifluoromethyl-benzenesulfonyl}-2-methoxy-cyclopentanecarboxylic acid (1-cyano-cyclopropyl)-amide], half-maximal inhibition (IC50) was put at 0.675 nM.

Turning to `N#CC1(NC(=O)[C@H]2CC[C@H](S(=O)(=O)c3ccc(N4CCOCC4)cc3Cl)C2)CC1` (racemic) [Example 94, (1S,3S) and (1R,3R)-3-(2-Chloro-4-morpholin-4-yl-benzenesulfonyl)-cyclopentanecarboxylic acid (1-cyano-cyclopropyl)-amide], the IC50 came out at 290 nM.

The compound `COCCn1cc(-c2ccc(S(=O)(=O)[C@H]3C[C@@H](OC)[C@H](C(=O)NC4(C#N)CC4)C3)c(C(F)(F)F)c2)cn1` (racemic) [Example 172, (1R,2R,4R) and (1S,2S,4S)-2-Methoxy-4-{4-[1-(2-methoxy-ethyl)-1H-pyrazol-4-yl]-2-trifluoromethyl-benzenesulfonyl}-cyclopentanecarboxylic acid (1-cyano-cyclopropyl)-amide] yielded an IC50 of 0.435 nM.

In turn, `Cc1cccc(S(=O)(=O)[C@@H]2C[C@@H](C(=O)NCC#N)[C@H](C(=O)N3CCOCC3)C2)c1` [Example 5, (1R,2R,4R)-2-(Morpholine-4-carbonyl)-4-(toluene-3-sulfonyl)-cyclopentanecarboxylic acid cyanomethyl-amide] yielded an IC50 of 0.6 nM.

For the compound `N#CC1(NC(=O)[C@@H]2C[C@@H](S(=O)(=O)c3ccccc3)C[C@H]2C(=O)N2CCC2)CC1` [Example 24, (1R,2R,4R)-2-(Azetidine-1-carbonyl)-4-benzenesulfonyl-cyclopentanecarboxylic acid (1-cyan o-cyclopropyl)-amide], inhibition was half-maximal at 9.6 nM (IC50).

Take `N#CC1(NC(=O)[C@@H]2C[C@@H](S(=O)(=O)c3ccccn3)C[C@H]2C(=O)N2CCC(F)(F)C2)CC1` [Example 227, (1R,2R,4R)-2-(3,3-Difluoro-pyrrolidine-1-carbonyl)-4-(pyridine-2-sulfonyl)-cyclopentanecarboxylic acid (1-cyano-cyclopropyl)-amide]: the IC50 is 0.555 nM.

Compound `CO[C@@H]1C[C@H](S(=O)(=O)c2ccc(-c3c(C)noc3C)cc2C(F)(F)F)C[C@H]1C(=O)NC1(C#N)CC1` (racemic) [Example 91, (1R,2R,4R) and (1S,2S,4S)-4-[4-(3,5-Dimethyl-isoxazol-4-yl)-2-trifluoromethyl-benzenesulfonyl]-2-methoxy-cyclopentanecarboxylic acid (1-cyano-cyclopropyl)-amide] showed an IC50 of 0.5 nM.

`N#CCNC(=O)[C@@H]1C[C@@H](S(=O)(=O)c2ccc(F)cc2F)C[C@H]1C(=O)N1CCOCC1` [Example 6, (1R,2R,4R)-4-(2,4-Difluoro-benzenesulfonyl)-2-(morpholine-4-carbonyl)-cyclopentanecarboxylic acid cyanomethyl-amide] had an IC50 of 0.8 nM.

Regarding `N#CCNC(=O)[C@@H]1C[C@@H](S(=O)(=O)CC2CC2)C[C@H]1C(=O)N1CCOCC1` [Example 40, (1R,2R,4R)-4-Cyclopropylmethanesulfonyl-2-(morpholine-4-carbonyl)-cyclopentanecarboxylic acid cyanomethyl-amide], the IC50 worked out at 230 nM.

Regarding `CCOC(=O)N1CCC(C#N)(NC(=O)[C@@H]2C[C@@H](S(=O)(=O)c3ccccc3C(F)(F)F)C[C@H]2OCc2ccc(Cl)cc2)CC1` (racemic) [Example 241, 4-{[(1R,2R,4R) and (1S,2S,4S)-2-(4-Chloro-benzyloxy)-4-(2-trifluoromethyl-benzenesulfonyl)-cyclopentanecarbonyl]-amino}-4-cyano-piperidine-1-carboxylic acid ethyl ester], the IC50 came out at 12 nM.

In the case of `CC(=O)N1CCN(c2ccc(S(=O)(=O)[C@@H]3C[C@@H](C(=O)NC4(C#N)CC4)[C@H](C(=O)N4CC(F)(F)C4)C3)c(Cl)c2)CC1` [Example 166, (1R,2R,4R)-4-[4-(4-Acetyl-piperazin-1-yl)-2-chloro-benzenesulfonyl]-2-(3,3-difluoro-azetidine-1-carbonyl)-cyclopentanecarboxylic acid (1-cyano-cyclopropyl)-amide], inhibition was half-maximal at 0.6 nM (IC50).

As for `CO[C@@H]1C[C@H](S(=O)(=O)c2ccc(-n3cc(C)cn3)cc2Cl)C[C@H]1C(=O)NC1(C#N)CC1` (racemic) [Example 149, (1R,2R,4R) and (1S,2S,4S)-4-[2-Chloro-4-(4-methyl-pyrazol-1-yl)-benzenesulfonyl]-2-methoxy-cyclopentanecarboxylic acid (1-cyano-cyclopropyl)-amide], 1.93 nM corresponded to half-maximal inhibition (IC50).

The compound `N#CC1(NC(=O)[C@@H]2C[C@@H](S(=O)(=O)c3cccc(Br)c3)C[C@H]2C(=O)N2CCC(F)(F)C2)CC1` [Example 188, (1R,2R,4R)-4-(3-Bromo-benzenesulfonyl)-2-(3,3-difluoro-pyrrolidine-1-carbonyl)-cyclopentanecarboxylic acid (1-cyano-cyclopropyl)-amide] had an IC50 of 0.985 nM.

On to `CO[C@@H]1C[C@H](S(=O)(=O)c2ccc(-c3ccc(F)cn3)cc2C(F)(F)F)C[C@H]1C(=O)NC1(C#N)CC1` (racemic) [Example 30, (1R,2R,4R) and (1S,2S,4S)-4-[4-(5-Fluoro-pyridin-2-yl)-2-trifluoromethyl-benzenesulfonyl]-2-methoxy-cyclopentanecarboxylic acid (1-cyano-cyclopropyl)-amide], for which the IC50 came out at 1 nM.

Compound `CNC(=O)[C@@H]1C[C@H](S(=O)(=O)c2ccccc2)C[C@H]1C(=O)NC1(C#N)CC1` [Example 29, (1R,2R,4S)-4-Benzenesulfonyl-cyclopentane-1,2-dicarboxylic acid 1-[(1-cyano-cyclopropyl)-amide]2-methylamide] gave a half-inhibitory concentration (IC50) of 72.5 nM.

The compound `CN1CCC(C#N)(NC(=O)[C@@H]2C[C@@H](S(=O)(=O)c3ccccc3C(F)(F)F)C[C@H]2OCc2ccc(Cl)cc2)CC1` (racemic) [Example 235, (1R,2R,4R) and (1S,2S,4S)-2-(4-Chloro-benzyloxy)-4-(2-trifluoromethyl-benzenesulfonyl)-cyclopentanecarboxylic acid (4-cyano-1-methyl-piperidin-4-yl)-amide] came in with an IC50 of 7.3 nM.

`CO[C@@H]1C[C@H](S(=O)(=O)c2ccc(N3CCC(O)CC3)cc2C(F)(F)F)C[C@H]1C(=O)NC1(C#N)CC1` (racemic) [Example 207, (1R,2R,4R) and (1S,2S,4S)-4-[4-(4-Hydroxy-piperidin-1-yl)-2-trifluoromethyl-benzenesulfonyl]-2-methoxy-cyclopentanecarboxylic acid (1-cyano-cyclopropyl)-amide]: the IC50 was 0.895 nM.

(Values after patent US20100317647A1 (priority 2009, published 2010).)
